What was measured:
[1] = system: MDA-MB-231 cells (human breast cancer), Smac mimetic resistant variant; assay: Viability of MDA-MB-231 cells (MTT) with PBMC culture supernatants and Compound 15; type: cell-based; conditions: 1 μM Compound 15 with supernatant of 1 ng/mL GM-CSF-treated Donor 1 PBMC culture, 24 hr, FIG. 3(a)
Procedure: MDA-MB-231 cells (human breast cancer) were seeded into 96-well plates at a density of 10,000 cells/well and allowed to adhere overnight. Next day, culture supernatants from untreated Donor 1 PBMC culture or 1 ng/mL GM-CSF-treated Donor 1 PBMC culture was added to MDA-MB-231 cells in the presence or absence of 1 μM Compound 15, 1 μM Compound 15 plus TNFα neutralizing antibody (R&D Systems #MAB610, 10 μg/mL), 1 μM Compound 15 plus TRAIL neutralizing antibodies (R&D Systems #374-DR and 631-T2, 100 ng/ml each) or 1 μM Compound 15 plus both TNFα and TRAIL neutralizing antibodies. All antibodies were tested in the absence of Compound 15 as control. Viability of MDA-MB-231 cells was measured following 24 hr incubation at 37° C./5% CO2 by MTT (3-(4,5-dimethylthiazol-2-yl)-2,5-diphenyltetrazolium bromide) assay substantially as described in Hansen, M. B., Nielsen, S. E., and Berg, K. (1989) J. Immunol. Methods 119, 203-210.
In an extension study, substantially the same experiment was carried out with culture supernatants from two additional donors, Donors 3 and 4, excluding treatment with the combination of anti-TNFα and anti-TRAIL antibodies.

RenCa cells = assay: Survival of BALB/c mice inoculated with RenCa cells; type: in vivo; conditions: female BALB/c mice, RenCa cells on each flank; qdX5 each week for 4 weeks; birinapant 15 mg/Kg IP, mGM-CSF 10 mg IP
Procedure: 40 female BALB/c mice (10 per treatment group) were inoculated with 1×10^5 RenCa cells on each flank. The mice were subsequently treated qdX5 each week for 4 consecutive weeks with birinapant, mGM-CSF, birinapant and mGM-CSF, or a vehicle control. Each dose of birinapant was 15 mg/Kg IP and each dose of mGM-CSF was 10 mg IP.

[2] = human, in vivo
Source text: In general, Compound 15 can be administered once, twice or three times per week for one to four weeks (or longer). In some situations a treatment interval may be followed by a rest interval. A suitable rest interval includes but is not limited to one week. […] It should be understood that the “on” weeks are consecutive weeks, i.e., two consecutive weeks on drug, three consecutive weeks on drug, and four consecutive weeks (or more) on drug.

[3] = system: human peripheral blood mononuclear cells (PBMCs); assay: Ex-vivo treatment of PBMCs with GM-CSF; cytokine concentration in culture supernatants by ELISA; type: cell-based
Procedure: Peripheral blood mononuclear cells (PBMC) were isolated from two healthy male donors using BD Vacutainer® CPT cell preparation tubes (Becton, Dickinson and Company, Franklin Lakes N.J. 07417, REF 362753) according to manufacturer's protocol. After isolation, mononuclear cell layer was removed from CPT tube and transferred to a sterile 15 mL centrifuge tube. Cells were washed by adding 10 mL of Dulbecco's Modified Eagle Medium (DMEM) containing 10% fetal bovine serum (FBS) to cells, tube was inverted several times to mix and cells were pelleted by centrifugation at 1500 RPM for 10 minutes. Following centrifugation, media was removed and cells were resuspended in DMEM containing 10% FBS to a concentration of 1×10^6 cells/mL. Cells were next seeded into 6-well dishes at 1×10^6 cells/mL in 2 mL/well. Following 2 hr incubation at 37° C./5% CO2, human recombinant GM-CSF (R&D Systems, Minneapolis Minn. 55413, Catalog # #215-GM) was added to cells at indicated concentrations. Following overnight incubation at 37° C./5% CO2, media was collected into sterile 15 mL centrifuge tubes and cells were removed by centrifugation at 1500 RPM for 10 minutes. Media was transferred to new, sterile tubes and frozen at −80° C. until use.
TNFα concentration in culture supernatants was determined by ELISA (BD OptEIA TNF kit II) according to manufacturer's recommendations. Absorbance values were analyzed using GraphPad Prism linear regression analysis and reported as pg/mL TNFα.
In a first extension of the preceding study, substantially the same experiment was carried out with PBMCs from two additional donors, Donors 3 and 4. In this first extension study, cells were treated with GM-CSF, GM-CSF+1.0 uM birinapant.
In a second extension study, substantially the same experiment was subsequently carried out with new PBMC culture supernatants from Donors 1, 3, and 4.

[4] = system: Mouse renal carcinoma (RenCa) cells; assay: Viability of RenCa cells (MTT) with birinapant plus TNFα or mouse GM-CSF; type: cell-based; conditions: in combination with birinapant, TNFα 0.000001 to 100 ng/mL or mouse GM-CSF 0.001 to 10 ng/mL, 24 h
Procedure: Mouse renal carcinoma (RenCa) cells were seeded into 96-well plates at a density of 10,000 cells/well and allowed to adhere overnight. On the next day, birinapant alone or in combination with varying concentrations of TNFα (R&D systems) (0.000001 to 100 ng/mL) or mouse GM-CSF (R&D Systems) (0.001 to 10 ng/mL) were added. Following a 24 h incubation, viability was assessed by MTT assay.

## CC[C@H](NC(=O)[C@H](C)NC)C(=O)N1C[C@@H](O)C[C@H]1Cc1c(-c2[nH]c3cc(F)ccc3c2C[C@@H]2C[C@H](O)CN2C(=O)[C@H](CC)NC(=O)[C@H](C)NC)[nH]c2cc(F)ccc12 [Compound 15, N-{1S-[2R-(6,6′-Difluoro-3′-{4S-hydroxy-1-[2S-(2S-methylamino-propionylamino)-butyryl]-pyrrolidin-2R-ylmethyl}-1H,1′H-[2,2′]biindolyl-3-ylmethyl)-4S-hydroxy-pyrrolidine-1-carbonyl]-propyl}-2S-methylamino-propionamide]
[1]
  viability of MDA-MB-231 cells / induction of apoptosis: sensitization of MDA-MB-231 Smac mimetic resistant variant to Compound 15
RenCa cells
  time to which 50% of mice survived: approximately 40 days
[2]
  half-life in the patient: long half-life

## GM-CSF: Granulocyte macrophage colony-stimulating factor; human recombinant GM-CSF (R&D Systems) in Example 1
[3]; Donors 1 and 2, overnight incubation with GM-CSF, ELISA, FIGS. 1(a),(b)
  expression and secretion of TNFα by PBMCs: increased expression and secretion of TNFα
[3]; first extension study, Donors 3 and 4, FIGS. 1(c),(d)
  expression and secretion of TNFα by PBMCs: increased expression and secretion of TNFα
[3]; second extension study, new PBMC culture supernatants from Donors 1, 3 and 4, FIGS. 2(a)-(c)
  expression and secretion of TNFα by PBMCs: increased expression and secretion of TNFα
[4]
  RenCa cell viability: unaffected

## TNFα [reference compound]
[4]
  RenCa cell viability: decreased in direct relation to the concentration of TNFα

B1: mGM-CSF: mouse GM-CSF (R&D Systems) (protein, UniProt P01587 18-141, looked up)
Granulocyte-macrophage …: APTRSPITVTRPWKHVEAIKEALNLLDDMPVTLNEEVEVVSNEFSFKKLTCVQTRLKIFEQGLRGNFTKLKGALNMTASYYQTYCPPTPETDCETQVTTYADFIDSLKTFLTDIPFECKKPGQK
RenCa cells
  time to which 50% of mice survived: approximately 30 days

— patent publication US20150190470A1, “COMBINATION THERAPY” (TETRALOGIC PHARMACEUTICALS CORPORATION, priority 2012, published 2015)
